Measured values taken from PMC3463587, “A Series of Beta-Carboline Derivatives Inhibit the Kinase Activity of PLKs” (PLoS ONE, 2012).

How the values were obtained:
[1] = test system: Wee1 protein levels in HeLa cells; experiment: Wee1 protein level (Western blotting); type: cell-based, human; conditions: 1.21 µM, 24 hr, compared to control cells
Description: As the inhibitory kinase for cyclin-dependent kinase (CDK), Wee1 is one of the substrates of PLK1 and this phosphorylation stimulates Wee1 degradation. We expect that the inhibition of PLK1 impairs the phosphorylation of Wee1, thereby resulting in elevated Wee1 protein levels. To test this possibility, we examined the protein levels of Wee1 in HeLa cells after treatment with 1.21 µM beta-carboline compounds for 24 hr. […] PLK1 also phosphorylates cyclin B1 and this phosphorylation promotes the nuclear localization of cyclin B1 [36]. After treatment with these beta-carboline compounds, a slight increase of cyclin B1 protein was observed (Figure 6B), and this increase could be a consequence of accumulation of cells in G2/M phase. However, the change of cyclin B1 levels is much less significant compared to the increase of Wee1 levels after treatment with these compounds.
HeLa cells were incubated with or without 1.21 µM DH281, DH285 and DH287 for 24 hr. The cells were washed twice with cold 1×PBS and lysed in RAPI buffer (Applygen technologies Inc.) for 30 min and centrifuged at 14,000 rpm for 20 min at 4°C. We separated 15 µl of total protein (1 µg/ µl) with 12% SDS-PAGE gels and transferred the proteins to PVDF membrane. […] The protein bands were detected using ECL System (Piscataway, New Jersey, USA). […]

[2] = test system: cdc5-2 mutant yeast cells; experiment: Yeast growth inhibition (MIC), cdc5-2 mutant; conditions: 25°C, 24 hr
Description: The Cdc5 kinase is the functional homologue of PLK1 in budding yeast and the incubation of cdc5-2 mutants at 37°C impairs the kinase activity and stops cell growth. […] We also compared the sensitivity of wild-type and cdc5-2 mutant cells to the selected compounds at different concentrations. […] The temperature sensitive cdc5-2 mutants and wild-type strains were used. […] After incubation at 25°C for 24 hr, the growth of the yeast cells was determined by measuring OD600.

[3] = test system: four cancer cell lines (HepG2, MG63, HeLa and PC3); experiment: Growth inhibition of four cancer cell lines; type: cell-based, Human
Source text: In order to find more efficient antitumor small molecules targeting PLK1, we synthesized additional 18 beta-carboline compounds and the structures of these compounds are shown in Figure 1. The growth inhibition of four cancer cell lines (HepG2, MG63, HeLa and PC3) by these compounds was examined. […] We selected DH281, DH285 and DH287 for further studies.

[4] = biological target: PLK2 (Homo sapiens, UniProt Q9NYY3); experiment: In vitro kinase assay PLK2; type: biochemical
Sequence of PLK2 (Q9NYY3 whole entry, species assumed): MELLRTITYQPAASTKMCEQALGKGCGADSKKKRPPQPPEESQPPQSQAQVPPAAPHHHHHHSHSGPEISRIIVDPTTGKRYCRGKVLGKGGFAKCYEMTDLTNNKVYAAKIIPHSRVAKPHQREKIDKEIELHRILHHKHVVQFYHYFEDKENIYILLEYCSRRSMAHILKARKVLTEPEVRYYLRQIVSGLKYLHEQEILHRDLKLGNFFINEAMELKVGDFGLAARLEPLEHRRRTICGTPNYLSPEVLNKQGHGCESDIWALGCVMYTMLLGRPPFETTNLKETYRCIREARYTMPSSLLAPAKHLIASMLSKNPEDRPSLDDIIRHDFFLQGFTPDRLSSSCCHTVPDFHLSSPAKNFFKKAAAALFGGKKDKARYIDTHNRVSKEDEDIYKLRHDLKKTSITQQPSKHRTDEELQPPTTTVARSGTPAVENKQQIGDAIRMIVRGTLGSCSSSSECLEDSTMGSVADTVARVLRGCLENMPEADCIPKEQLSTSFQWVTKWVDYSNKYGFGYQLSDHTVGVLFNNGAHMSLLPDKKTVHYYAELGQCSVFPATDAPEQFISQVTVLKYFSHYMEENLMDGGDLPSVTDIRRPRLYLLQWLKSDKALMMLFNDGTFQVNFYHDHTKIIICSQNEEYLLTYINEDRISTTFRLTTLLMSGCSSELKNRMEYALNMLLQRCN
Description: (§1) The inhibition of PLK1 kinase activity was assessed using the Cyclex PLK1 Assay/Inhibitor Screening Kit (MBL International Corporation, Japan). The kit includes anti-phospho-threonine polyclonal antibody (PPT-07) and peroxidase coupled anti-rabbit IgG antibody as a reporter in a 96-well ELSIA format. Compounds were used at the concentrations from 10^− ^3 to 10^2 µg/ml and the absorbance was determined at 450 nm. A similar protocol was used to determine the kinase inhibition for PLK2, PLK3, Aurora A and Aurora B. The kinase activity of CDK1/cyclinB and CDK2/cyclinE was analyzed in the presence of serially diluted inhibitors. For each reaction, 20 ng of recombinant kinase was used and […] casein from bovine milk (Sigma) was added as the kinase substrate. The kinase reaction buffer contains 8 mM MOPS pH7.0, 0.2 mM EDTA, 0.1 mg/ml histone H1, 10 mM and MgAcetace and [γ^− ^33P-ATP] (500 cpm/pmol). The reaction was initiated by adding the MgATP mix. After incubation for 40 minutes at room temperature, the reaction was stopped by the addition of 3% phosphoric acid solution. We spotted 10 µl of the reaction mixture onto a P30 filtermat and washed three times for 5 min with 75 mM phosphoric acid and once with methanol prior to drying and scintillation counting.

[5] = test system: HeLa cells; experiment: FITC-Annexin V/PI apoptosis assay, HeLa; type: cell-based, human
Source text: Staining with Annexin V–FITC and propidium iodide (PI) is commonly used to distinguish apoptotic, necrotic, and dead cells. PI is impermeant to live cells and apoptotic cells at early stages, but it stains dead cells and apoptotic cells at late stages through its binding to the nucleic acids. Apoptotic cells in early or late stages are stained positively for Annexin V-FITC that binds to phosphotidylserine. We used FACS analysis to determine the proportion of HeLa cells positive for Annexin V-FITC (FITC), PI, or both. The HeLa cells with PI^−/PI^+ FITC^+ were counted as apoptotic cells (Figure 5). […] However, 16.19% (3.96+12.23) of HeLa cells became FITC positive after treatment with 1.05 µM DH281 for 48 hr. The treatment with 5.25 µM DH281 induced apoptosis among 89.6% (89.51+0.09) of HeLa cells (Table 5). […] In contrast to HeLa cells, the induction of apoptosis by DH281 was much less efficient in non-cancer MRC5 cells (Table 5). Therefore, we conclude that the treatment with compounds DH281, DH285 and DH287 induces substantial apoptosis in HeLa cells, but non-cancer MRC5 cells are much less sensitive to the treatment. The distinct apoptotic responses of HeLa and MRC5 cells to beta-carboline compounds could explain the selectivity of PLK1 inhibitors toward cancer cells.
HeLa cells were either treated with 0, 0.21, 1.05 and 5.25 µM of DH281, DH285 and DH287 for 48 hr, or treated with 1.21 µM compounds for 24, 48 and 72 hr, while MRC5 cells were exposed to compounds at 0, 0.21, 1.05, and 5.25 µM for 48 hr. The cultured cells were harvested, washed three times with PBS, and resuspended in 500 µl binding buffer (10 mM Hepes/sodium hydroxide (pH7.4), 140 mM sodium chloride, and 2.5 mM CaCl2). Then 5 µl FITC-labeled Annexin V (Zhongshan JinQiao Biotechnology Ltd., Beijing) was added and the cells were incubated in the dark for 10 min. We added 5 µl of propidium iodide (PI) (10 µg/ml in binding buffer) to each sample before flow cytometry analysis.

[6] = biological target: CDK2/cyclinE(h) (Homo sapiens, UniProt P24941); experiment: In vitro kinase assay CDK2/cyclinE (33P-ATP); type: biochemical
Description: as §1

Compound	Wee1 protein level [1]	difference in the MICs, cdc5-2 compared to wild-type cells [2]	antitumor activity (growth inhibition) [3]	IC50 [4]	PI+ FITC+ (late apoptotic cells) ([5]; 0.21 µM, 48 hr)	PI+ FITC− (dead cells) ([5]; 0.21 µM, 48 hr)	PI− FITC+ (early apoptotic cells) ([5]; 0.21 µM, 48 hr)	PI− FITC− (live cells) ([5]; 0.21 µM, 48 hr)	PI+ FITC+ (late apoptotic cells) ([5]; 1.05 µM, 48 hr)	PI+ FITC− (dead cells) ([5]; 1.05 µM, 48 hr)	PI− FITC+ (early apoptotic cells) ([5]; 1.05 µM, 48 hr)	PI− FITC− (live cells) ([5]; 1.05 µM, 48 hr)	PI+ FITC+ (late apoptotic cells) ([5]; 1.21 µM, 24 hr)	PI+ FITC− (dead cells) ([5]; 1.21 µM, 24 hr)	PI− FITC+ (early apoptotic cells) ([5]; 1.21 µM, 24 hr)	PI− FITC− (live cells) ([5]; 1.21 µM, 24 hr)	PI+ FITC+ (late apoptotic cells) ([5]; 1.21 µM, 48 hr)	PI+ FITC− (dead cells) ([5]; 1.21 µM, 48 hr)	PI− FITC+ (early apoptotic cells) ([5]; 1.21 µM, 48 hr)	PI− FITC− (live cells) ([5]; 1.21 µM, 48 hr)	further results
Cc1c2c(cc[n+]1Cc1ccccc1)c1ccc(OCc3ccc(F)cc3)cc1n2CCCc1ccccc1 [DH281]	high levels of Wee1 protein	2 to 4 fold	very strong growth inhibition	3.82 µM	3.22%	3.24%	0.97%	92.57%	3.96%	10.22%	12.23%	73.59%	10.65%	2.52%	1.42%	85.41%	8.91%	3.31%	16.20%	71.58%	FITC positive (apoptotic) cells, early + late ([5]; 1.05 µM, 48 hr): 16.19%; PI+ FITC+ (late apoptotic cells) ([5]; 1.21 µM, 72 hr): 5.97%; PI+ FITC− (dead cells) ([5]; 1.21 µM, 72 hr): 1.41%; PI− FITC+ (early apoptotic cells) ([5]; 1.21 µM, 72 hr): 39.54%; PI− FITC− (live cells) ([5]; 1.21 µM, 72 hr): 53.08%; FITC positive (apoptotic) cells, early + late ([5]; 5.25 µM, 48 hr): 89.6%; PI+ FITC+ (late apoptotic cells) ([5]; 5.25 µM, 48 hr): 0.09%; PI+ FITC− (dead cells) ([5]; 5.25 µM, 48 hr): 0.37%; PI− FITC+ (early apoptotic cells) ([5]; 5.25 µM, 48 hr): 89.51%; PI− FITC− (live cells) ([5]; 5.25 µM, 48 hr): 10.03%; IC50 [6]: > 100 µM
Cc1c2c(cc[n+]1Cc1ccccc1)c1ccc(OCc3ccccc3)cc1n2Cc1ccccc1 [DH287]	high levels of Wee1 protein	2 to 4 fold	very strong growth inhibition	4.3 µM	2.16%	3.48%	1.12%	93.25%	5.20%	9.81%	7.20%	77.8%	10.88%	3.56%	10.39%	75.17%	8.31%	7.05%	25.70%	58.94%	PI+ FITC+ (late apoptotic cells) ([5]; 1.21 µM, 72 hr): 1.19%; PI− FITC+ (early apoptotic cells) ([5]; 1.21 µM, 72 hr): 55.98%; PI− FITC− (live cells) ([5]; 1.21 µM, 72 hr): 38.27%; PI+ FITC+ (late apoptotic cells) ([5]; 5.25 µM, 48 hr): 5.58%; PI+ FITC− (dead cells) ([5]; 5.25 µM, 48 hr): 8.71%; PI− FITC+ (early apoptotic cells) ([5]; 5.25 µM, 48 hr): 65.36%; PI− FITC− (live cells) ([5]; 5.25 µM, 48 hr): 20.35%; IC50 [6]: > 100 µM
